This passage reports T/C results from PubChem BioAssay AID288 (DTP/NCI, 2004).

Several values for one entry are separate records, joined by “and”; a condition that tells them apart may be missing. Equal entries are not always repeated. Results filed as inconclusive are left out. Numbered stars: 1 amine (or outer) side, 2 acyl side, 3 side chain; on linkers, the order of the positions; unused ones are H or OH. Bridge positions count the residues as written; N and C are the ends. Square brackets hold non-standard residues; d marks the D form. Peptide text beside a SMILES is read from it. I, II: the chains in the order shown. Actinocin(1to9) = Cc1c2oc3c(C)ccc(C(=O)[*:2])c3nc-2c(C(=O)[*:1])c(N)c1=O; Actinocin(9to1) = Cc1c2oc3c(C)ccc(C(=O)[*:1])c3nc-2c(C(=O)[*:2])c(N)c1=O; aThr = C[C@H](O)[C@H](N)C(=O)O; NMeV = CN[CH](C(=O)O)C(C)C; Aze = O=C(O)[CH]1CCN1; Sar = CNCC(=O)O

The test system of the test is BDF1 mice, M5076 sarcoma s.c., survival/tumor T/C. Kind of test: NCI In Vivo Anticancer Drug Screen. Data for tumor model Sarcoma M5076 (subcutaneous) in B6D2F1 (BDF1) mice. How it is done:
The antitumor activity of compounds was measured in mice bearing transplantable tumors. Survival or tumor size were measured and the results are expressed as the measurement made in the treated group (T) divided by the measurement made in the vehicle treated control group (C). The tumor model used in this assay is Sarcoma M5076 (subcutaneous) in B6D2F1 (BDF1) mice

The mark [1] stands for this setting: endpoint: median survival time, dose: 100.0 mg/kg/injection, schedule: Q01DX009 (ip), vehicle: saline with Tween-80, higher = longer survival.
Where [2] appears, read: endpoint: median survival time, dose: 200.0 mg/kg/injection, schedule: Q01DX009 (ip), vehicle: saline with Tween-80, higher = longer survival.

Turning to `NC1=NC(O)C=C1` (stereo unspecified), the T/C (endpoint: median survival time, dose: 5.0 mg/kg/injection, schedule: Q01DX009 (ip), vehicle: saline, higher = longer survival) was 103 % of control; the T/C (endpoint: median survival time, dose: 10.0 mg/kg/injection, schedule: Q01DX009 (ip), vehicle: saline, higher = longer survival) was 96 % of control; the T/C (endpoint: median survival time, dose: 20.0 mg/kg/injection, schedule: Q01DX009 (ip), vehicle: saline, higher = longer survival) is 94 % of control; the T/C (endpoint: median survival time, dose: 40.0 mg/kg/injection, schedule: Q01DX009 (ip), vehicle: saline, higher = longer survival) was 96 % of control; the T/C (endpoint: median survival time, dose: 80.0 mg/kg/injection, schedule: Q01DX009 (ip), vehicle: saline, higher = longer survival) is 103 % of control; the T/C (endpoint: median tumor weight (est.), dose: 5.0 mg/kg/injection, schedule: Q01DX009 (ip), vehicle: saline, higher = larger tumour) was 115 % of control. The T/C (endpoint: median tumor weight (est.), dose: 10.0 mg/kg/injection, schedule: Q01DX009 (ip), vehicle: saline, higher = larger tumour) was 63 % of control; the T/C (endpoint: median tumor weight (est.), dose: 20.0 mg/kg/injection, schedule: Q01DX009 (ip), vehicle: saline, higher = larger tumour) was 169 % of control; the T/C (endpoint: median tumor weight (est.), dose: 40.0 mg/kg/injection, schedule: Q01DX009 (ip), vehicle: saline, higher = larger tumour) is 96 % of control; the T/C (endpoint: median tumor weight (est.), dose: 80.0 mg/kg/injection, schedule: Q01DX009 (ip), vehicle: saline, higher = larger tumour) was 68 % of control.
Turning to `Nc1nc(SCC(=O)O)[nH]c(=O)c1N`, the T/C (endpoint: median survival time, dose: 50.0 mg/kg/injection, schedule: Q01DX009 (ip), vehicle: saline with Tween-80, higher = longer survival) was 93 % of control; the T/C under setting [1] is 105 % of control; the T/C under setting [2] was 110 % of control.
Take `Cc1c2oc3c(C)ccc(C(=O)NC4C(=O)NC(C(C)C)C(=O)N5CCCC5C(=O)N(C)CC(=O)N(C)C(C(C)C)C(=O)OC4C)c3nc-2c(C(=O)NC2C(=O)NC(C(C)C)C(=O)N3CCC3C(=O)N(C)CC(=O)N(C)C(C(C)C)C(=O)OC2C)c(N)c1=O` (stereo unspecified) (I: TV[Aze][Sar][NMeV] / II: TVP[Sar][NMeV]; ester I:1-I:C, II:1-II:C; linker I:N-II:N via Actinocin(1to9); configuration not given here): the T/C is 112 % of control (endpoint: median tumor weight (est.), dose: 14.0 micrograms/kg/injection, schedule: Q02DX011 (ip), vehicle: saline, higher = larger tumour); 99 % of control (endpoint: median tumor weight (est.), dose: 23.3 micrograms/kg/injection, schedule: Q02DX011 (ip), vehicle: saline, higher = larger tumour); 87 % of control (endpoint: median tumor weight (est.), dose: 38.9 micrograms/kg/injection, schedule: Q02DX011 (ip), vehicle: saline, higher = larger tumour); 120 % of control (endpoint: median tumor weight (est.), dose: 64.8 micrograms/kg/injection, schedule: Q02DX011 (ip), vehicle: saline, higher = larger tumour); 64 % of control (endpoint: median tumor weight (est.), dose: 108.0 micrograms/kg/injection, schedule: Q02DX011 (ip), vehicle: saline, higher = larger tumour); 96 % of control (endpoint: median tumor weight (est.), dose: 180.0 micrograms/kg/injection, schedule: Q02DX011 (ip), vehicle: saline, higher = larger tumour). The T/C (endpoint: median tumor weight (est.), dose: 300.0 micrograms/kg/injection, schedule: Q02DX011 (ip), vehicle: saline, higher = larger tumour) is 59 % of control.
With `CN(Cc1cnc2nc(N)nc(N)c2n1)c1ccc(C(=O)N[C@@H](CCC(=O)O)C(=O)O)cc1`, the T/C (endpoint: median survival time, dose: 0.5 mg/kg/injection, schedule: Q04DX006 (ip), vehicle: saline, higher = longer survival) is 97 % of control; the T/C (endpoint: median survival time, dose: 1.0 mg/kg/injection, schedule: Q04DX006 (ip), vehicle: saline, higher = longer survival) is 106 % of control; the T/C (endpoint: median survival time, dose: 2.0 mg/kg/injection, schedule: Q04DX006 (ip), vehicle: saline, higher = longer survival) was 97 % of control; the T/C (endpoint: median survival time, dose: 4.0 mg/kg/injection, schedule: Q04DX006 (ip), vehicle: saline, higher = longer survival) was 108 % of control.
Consider `NCCCNCCSP(=O)(O)O`, for which the T/C by setting is: (endpoint: median survival time, dose: 25.0 mg/kg/injection, schedule: Q02DX011 (ip), vehicle: saline, higher = longer survival) 116 % of control; (endpoint: median survival time, dose: 50.0 mg/kg/injection, schedule: Q02DX011 (ip), vehicle: saline, higher = longer survival) 106 % of control; (endpoint: median survival time, dose: 100.0 mg/kg/injection, schedule: Q02DX011 (ip), vehicle: saline, higher = longer survival) 96 % of control.
Consider `C[c-]1[c-][c-][c-][c-]1.C[c-]1[c-][c-][c-][c-]1.[C-]#[O+].[C-]#[O+].[C-]#[O+].[C-]#[O+].[C-]#[O+].[C-]#[O+].[Mo].[Mo]`, for which the T/C under setting [1] was 111 % of control and the T/C under setting [2] was 94 % of control.
As to `CC1CCC(NC(=O)N(CCCl)N=O)CC1` (stereo unspecified), the T/C runs as follows: (endpoint: median survival time, dose: 2.5 mg/kg/injection, schedule: Q04DX009 (ip), vehicle: saline with Tween-80, higher = longer survival) 109 % of control; (endpoint: median survival time, dose: 5.0 mg/kg/injection, schedule: Q02DX011 (ip), vehicle: Klucel (hydroxypropylcellulose) (HPC), higher = longer survival) 296 % of control; (endpoint: median survival time, dose: 5.0 mg/kg/injection, schedule: Q02DX033 (ip), vehicle: saline with Tween-80, higher = longer survival) 230 % of control; (endpoint: median survival time, dose: 5.0 mg/kg/injection, schedule: Q04DX005 (ip), vehicle: other, higher = longer survival) 191 % of control; (endpoint: median survival time, dose: 5.0 mg/kg/injection, schedule: Q04DX009 (ip), vehicle: saline with Tween-80, higher = longer survival) 150 % of control; (endpoint: median survival time, dose: 10.0 mg/kg/injection, schedule: Q02DX033 (ip), vehicle: saline with Tween-80, higher = longer survival) 252 % of control. The T/C was 233 % of control (endpoint: median survival time, dose: 10.0 mg/kg/injection, schedule: Q04DX005 (ip), vehicle: other, higher = longer survival); 298 % of control (endpoint: median survival time, dose: 10.0 mg/kg/injection, schedule: Q04DX009 (ip), vehicle: saline with Tween-80, higher = longer survival); 160 % of control (endpoint: median survival time, dose: 20.0 mg/kg/injection, schedule: Q01DX003 (ip), vehicle: saline with Tween-80, higher = longer survival); 320 % of control (endpoint: median survival time, dose: 20.0 mg/kg/injection, schedule: Q04DX009 (ip), vehicle: saline with Tween-80, higher = longer survival); 154 % of control and 171 % of control (endpoint: median survival time, dose: 30.0 mg/kg/injection, schedule: Q01DX001 (ip), vehicle: saline with Tween-80, higher = longer survival); 160 % of control and 191 % of control (endpoint: median survival time, dose: 30.0 mg/kg/injection, schedule: Q01DX001 (oral), vehicle: saline with Tween-80, higher = longer survival). The T/C runs as follows: (endpoint: median survival time, dose: 40.0 mg/kg/injection, schedule: Q01DX001 (oral), vehicle: saline with Tween-80, higher = longer survival) 179 % of control and 237 % of control (2×); (endpoint: median survival time, dose: 50.0 mg/kg/injection, schedule: Q01DX001 (ip), vehicle: saline with Tween-80, higher = longer survival) 153 % of control and 226 % of control (2×); (endpoint: median survival time, dose: 50.0 mg/kg/injection, schedule: Q01DX001 (oral), vehicle: saline with Tween-80, higher = longer survival) 194 % of control and 229 % of control (2×); (endpoint: median survival time, dose: 60.0 mg/kg/injection, schedule: Q01DX001 (oral), vehicle: saline with Tween-80, higher = longer survival) 229 % of control (2×) and 233 % of control.
With `CCCCCCC(=O)O[C@H]1CC[C@H]2[C@@H]3CCC4=CC(=O)CC[C@]4(C)[C@H]3CC[C@]12C`, the T/C was 43 % of control (endpoint: mean tumor weight, dose: 15.0 mg/kg/injection, schedule: Q02DX011 (ip), vehicle: Klucel (hydroxypropylcellulose) (HPC), higher = larger tumour); 68 % of control (endpoint: mean tumor weight, dose: 30.0 mg/kg/injection, schedule: Q02DX011 (ip), vehicle: Klucel (hydroxypropylcellulose) (HPC), higher = larger tumour); 124 % of control (endpoint: median tumor weight (est.), dose: 7.5 mg/kg/injection, schedule: Q02DX011 (ip), vehicle: Klucel (hydroxypropylcellulose) (HPC), higher = larger tumour); 21 % of control (endpoint: median tumor weight (est.), dose: 15.0 mg/kg/injection, schedule: Q02DX011 (ip), vehicle: Klucel (hydroxypropylcellulose) (HPC), higher = larger tumour); 52 % of control (endpoint: median tumor weight (est.), dose: 30.0 mg/kg/injection, schedule: Q02DX011 (ip), vehicle: Klucel (hydroxypropylcellulose) (HPC), higher = larger tumour).
Turning to `Cc1c2oc3c(C)ccc(C(=O)N[C@@H]4C(=O)N[C@H](C(C)C)C(=O)N5CCC[C@H]5C(=O)N(C)CC(=O)N(C)[C@@H](C(C)C)C(=O)O[C@H]4C)c3nc-2c(C(=O)N[C@@H]2C(=O)N[C@H](C(C)C)C(=O)N3CCC[C@H]3C(=O)N(C)CC(=O)N(C)[C@@H](C(C)C)C(=O)O[C@H]2C)c(N)c1=O` (I: [aThr][dV]P[Sar][NMeV] / II: [aThr][dV]P[Sar][NMeV]; ester I:1-I:C, II:1-II:C; linker I:N-II:N via Actinocin(9to1)), the T/C by setting is: (endpoint: median survival time, dose: 0.01 mg/kg/injection, schedule: Q04DX006 (ip), vehicle: saline, higher = longer survival) 102 % of control; (endpoint: median survival time, dose: 0.03 mg/kg/injection, schedule: Q04DX006 (ip), vehicle: saline, higher = longer survival) 95 % of control; (endpoint: median survival time, dose: 0.06 mg/kg/injection, schedule: Q04DX006 (ip), vehicle: saline, higher = longer survival) 102 % of control; (endpoint: median survival time, dose: 0.12 mg/kg/injection, schedule: Q04DX006 (ip), vehicle: saline, higher = longer survival) 102 % of control; (endpoint: median tumor weight (est.), dose: 4.7 micrograms/kg/injection, schedule: Q02DX011 (ip), vehicle: saline, higher = larger tumour) 78 % of control; (endpoint: median tumor weight (est.), dose: 7.8 micrograms/kg/injection, schedule: Q02DX011 (ip), vehicle: saline, higher = larger tumour) 109 % of control. In addition, the T/C is 66 % of control (endpoint: median tumor weight (est.), dose: 13.0 micrograms/kg/injection, schedule: Q02DX011 (ip), vehicle: saline, higher = larger tumour); 83 % of control (endpoint: median tumor weight (est.), dose: 21.6 micrograms/kg/injection, schedule: Q02DX011 (ip), vehicle: saline, higher = larger tumour); 59 % of control (endpoint: median tumor weight (est.), dose: 36.0 micrograms/kg/injection, schedule: Q02DX011 (ip), vehicle: saline, higher = larger tumour); 78 % of control (endpoint: median tumor weight (est.), dose: 60.0 micrograms/kg/injection, schedule: Q02DX011 (ip), vehicle: saline, higher = larger tumour); 51 % of control (endpoint: median tumor weight (est.), dose: 100.0 micrograms/kg/injection, schedule: Q02DX011 (ip), vehicle: saline, higher = larger tumour).
